The target of one series is CDKL3 (Homo sapiens, UniProt Q8IVW4). Description: KINOMEscan. The format is binding. The following applies: 1 μM of compound 4; read-out: POC.
The target of series [1] is T1, RSK3(Kin.Dom.2-C-terminal) (Homo sapiens, UniProt Q15349).
T1 construct: RSK3(Kin.Dom.2-C-terminal); purchased Eurofins DiscoverX (KINOMEscan service)
Description: KINOMEscan. The conditions noted are these: 1 μM of compound 4; read-out: POC. The format is binding.

Another series addresses T2, SRPK1 (Homo sapiens, UniProt Q96SB4).
T2 construct: purchased Eurofins DiscoverX (KINOMEscan service)
Put plainly: KINOMEscan. The format is binding. The following applies: 1 μM of compound 4; read-out: POC.

For a further series, the target named is NEK2 (Homo sapiens, UniProt P51955). Put plainly: KINOMEscan. The following applies: 1 μM of compound 4; read-out: POC. The format is binding.
The target of a further series is T3, TNNI3K (Homo sapiens, UniProt Q59H18).
T3 construct: purchased Eurofins DiscoverX Corporation
Put plainly: KINOMEscan. The format is binding. The conditions noted are these: 1 μM of compound 4; read-out: POC.

For another series, the target named is MAST1 (Homo sapiens, UniProt Q9Y2H9). Put plainly: KINOMEscan. The format is binding. The following applies: 1 μM of compound 4; read-out: POC.
The target in a further series is MEK5 (Homo sapiens, UniProt Q13163). Description: KINOMEscan. The format is binding. The conditions noted are these: 1 μM of compound 4; read-out: POC.
Another series has as its target CAMK4 (Homo sapiens, UniProt Q16566). Put plainly: KINOMEscan. The format is binding. The conditions noted are these: 1 μM of compound 4; read-out: POC.
The next series addresses T4, p38-delta (Homo sapiens, UniProt O15264).
T4 construct: purchased Eurofins DiscoverX Corporation (KINOMEscan)
Put plainly: KINOMEscan. The conditions noted are these: 1 μM of compound 4; read-out: POC. The format is binding.

A further series concerns the target T5, EGFR(L861Q) (Homo sapiens, UniProt P00533, L861Q).
T5 construct: purchased Eurofins DiscoverX (KINOMEscan service)
Description: KINOMEscan. The format is binding. The following applies: 1 μM of compound 4; read-out: POC.

For a further series, the target named is T6, WNK2 (Homo sapiens, UniProt Q9Y3S1).
T6 construct: purchased Eurofins DiscoverX
Put plainly: KINOMEscan. The format is binding. The conditions noted are these: 1 μM of compound 4; read-out: POC.

Another series concerns the target PIP5K1A (Homo sapiens, UniProt Q99755). Put plainly: KINOMEscan. The format is binding. The following applies: 1 μM of compound 4; read-out: POC.
Another series addresses EGFR (Homo sapiens, UniProt P00533). Put plainly: KINOMEscan. The format is binding. The conditions noted are these: 1 μM of compound 4; read-out: POC.
The target in series [2] is T7, ABL1(M351T)-phosphorylated (Homo sapiens, UniProt P00519, M351T).
T7 construct: purchased Eurofins DiscoverX Corporation
Put plainly: KINOMEscan. The format is binding. The conditions noted are these: 1 μM of compound 4; read-out: POC.

For another series, the target named is T8, ERK5 (Homo sapiens, UniProt Q13164).
T8 construct: purchased Eurofins DiscoverX Corporation
Description: KINOMEscan. The format is binding. The conditions noted are these: 1 μM of compound 4; read-out: POC.

A further series deals with DAPK3 (Homo sapiens, UniProt O43293). Description: KINOMEscan. The following applies: 1 μM of compound 4; read-out: POC. The format is binding.
Series [3] concerns the target T9, RPS6KA4(Kin.Dom.1-N-terminal) (Homo sapiens, UniProt O75676).
T9 construct: RPS6KA4(Kin.Dom.1-N-terminal); purchased Eurofins DiscoverX Corporation (KINOMEscan screening service)
Put plainly: KINOMEscan. The format is binding. The following applies: 1 μM of compound 4; read-out: POC.

Another series deals with PRKX (Homo sapiens, UniProt P51817). Description: KINOMEscan. The format is binding. The conditions noted are these: 1 μM of compound 4; read-out: POC.
Series [4] in a line: Metabolic stability in Human Liver Microsomes (HLM). The format is in vitro ADME. The procedure:
Metabolic stability in Human Liver Microsomes (HLM). Pooled liver microsomes from humans (male) were purchased from Sekisui XenoTech, LLC, Kansas City, KS, USA. Metabolic stability assays were performed in the presence of an NADPH-regenerating system consisting of 5 mM glucose-6-phosphate, 5 U/mL glucose-6-phosphate dehydrogenase, and 1 mM NADP^+. Liver microsomes (20 mg/mL), NADPH-regenerating system, and 4 mM MgCl2·6 H2O in 0.1 M TRIS-HCl-buffer (pH 7.4) were preincubated for 5 min at 37° C. and 750 rpm on a shaker. The reaction was started by adding the preheated compound at 10 mM resulting in a final concentration of 0.1 mM. The reaction was quenched at selected time points (0, 10, 20, 30, 60, and 120 min) by pipetting 100 μL of internal standard (ketoprofen) at a concentration of 150 μM in acetonitrile. The samples were vortexed for 30 s and centrifuged (21910 relative centrifugal force, 4° C., 20 min). The supernatant was used directly for LC-MS analysis. All compound incubations were conducted at least in triplicates. Additionally, a negative control containing BSA (20 mg/mL) instead of liver microsomes and a positive control using verapamil instead of compound were performed. A limit of 1% organic solvent during incubation was not exceeded. […]
On the technique in general: Liver microsomes are vesicles of endoplasmic reticulum, rich in cytochrome P450 enzymes.

For a further series, the target named is INSRR (Homo sapiens, UniProt P14616). Description: KINOMEscan. The format is binding. The conditions noted are these: 1 μM of compound 4; read-out: POC.
A further series has as its target T10, FLT1 (Homo sapiens, UniProt P17948).
T10 construct: purchased Eurofins DiscoverX Corporation
Put plainly: KINOMEscan. The format is binding. The following applies: 1 μM of compound 4; read-out: POC.

The target in series [5] is T11, RSK2(Kin.Dom.2-C-terminal) (Homo sapiens, UniProt P51812).
T11 construct: RSK2(Kin.Dom.2-C-terminal); purchased Eurofins DiscoverX Corporation (KINOMEscan screening service)
Description: KINOMEscan. The following applies: 1 μM of compound 4; read-out: POC. The format is binding.

In the next series the target is AMPK-alpha2 (Homo sapiens, UniProt P54646). Description: KINOMEscan. The format is binding. The following applies: 1 μM of compound 4; read-out: POC.

The structures appear in SMILES notation.

T6 sequence (Q9Y3S1 whole entry): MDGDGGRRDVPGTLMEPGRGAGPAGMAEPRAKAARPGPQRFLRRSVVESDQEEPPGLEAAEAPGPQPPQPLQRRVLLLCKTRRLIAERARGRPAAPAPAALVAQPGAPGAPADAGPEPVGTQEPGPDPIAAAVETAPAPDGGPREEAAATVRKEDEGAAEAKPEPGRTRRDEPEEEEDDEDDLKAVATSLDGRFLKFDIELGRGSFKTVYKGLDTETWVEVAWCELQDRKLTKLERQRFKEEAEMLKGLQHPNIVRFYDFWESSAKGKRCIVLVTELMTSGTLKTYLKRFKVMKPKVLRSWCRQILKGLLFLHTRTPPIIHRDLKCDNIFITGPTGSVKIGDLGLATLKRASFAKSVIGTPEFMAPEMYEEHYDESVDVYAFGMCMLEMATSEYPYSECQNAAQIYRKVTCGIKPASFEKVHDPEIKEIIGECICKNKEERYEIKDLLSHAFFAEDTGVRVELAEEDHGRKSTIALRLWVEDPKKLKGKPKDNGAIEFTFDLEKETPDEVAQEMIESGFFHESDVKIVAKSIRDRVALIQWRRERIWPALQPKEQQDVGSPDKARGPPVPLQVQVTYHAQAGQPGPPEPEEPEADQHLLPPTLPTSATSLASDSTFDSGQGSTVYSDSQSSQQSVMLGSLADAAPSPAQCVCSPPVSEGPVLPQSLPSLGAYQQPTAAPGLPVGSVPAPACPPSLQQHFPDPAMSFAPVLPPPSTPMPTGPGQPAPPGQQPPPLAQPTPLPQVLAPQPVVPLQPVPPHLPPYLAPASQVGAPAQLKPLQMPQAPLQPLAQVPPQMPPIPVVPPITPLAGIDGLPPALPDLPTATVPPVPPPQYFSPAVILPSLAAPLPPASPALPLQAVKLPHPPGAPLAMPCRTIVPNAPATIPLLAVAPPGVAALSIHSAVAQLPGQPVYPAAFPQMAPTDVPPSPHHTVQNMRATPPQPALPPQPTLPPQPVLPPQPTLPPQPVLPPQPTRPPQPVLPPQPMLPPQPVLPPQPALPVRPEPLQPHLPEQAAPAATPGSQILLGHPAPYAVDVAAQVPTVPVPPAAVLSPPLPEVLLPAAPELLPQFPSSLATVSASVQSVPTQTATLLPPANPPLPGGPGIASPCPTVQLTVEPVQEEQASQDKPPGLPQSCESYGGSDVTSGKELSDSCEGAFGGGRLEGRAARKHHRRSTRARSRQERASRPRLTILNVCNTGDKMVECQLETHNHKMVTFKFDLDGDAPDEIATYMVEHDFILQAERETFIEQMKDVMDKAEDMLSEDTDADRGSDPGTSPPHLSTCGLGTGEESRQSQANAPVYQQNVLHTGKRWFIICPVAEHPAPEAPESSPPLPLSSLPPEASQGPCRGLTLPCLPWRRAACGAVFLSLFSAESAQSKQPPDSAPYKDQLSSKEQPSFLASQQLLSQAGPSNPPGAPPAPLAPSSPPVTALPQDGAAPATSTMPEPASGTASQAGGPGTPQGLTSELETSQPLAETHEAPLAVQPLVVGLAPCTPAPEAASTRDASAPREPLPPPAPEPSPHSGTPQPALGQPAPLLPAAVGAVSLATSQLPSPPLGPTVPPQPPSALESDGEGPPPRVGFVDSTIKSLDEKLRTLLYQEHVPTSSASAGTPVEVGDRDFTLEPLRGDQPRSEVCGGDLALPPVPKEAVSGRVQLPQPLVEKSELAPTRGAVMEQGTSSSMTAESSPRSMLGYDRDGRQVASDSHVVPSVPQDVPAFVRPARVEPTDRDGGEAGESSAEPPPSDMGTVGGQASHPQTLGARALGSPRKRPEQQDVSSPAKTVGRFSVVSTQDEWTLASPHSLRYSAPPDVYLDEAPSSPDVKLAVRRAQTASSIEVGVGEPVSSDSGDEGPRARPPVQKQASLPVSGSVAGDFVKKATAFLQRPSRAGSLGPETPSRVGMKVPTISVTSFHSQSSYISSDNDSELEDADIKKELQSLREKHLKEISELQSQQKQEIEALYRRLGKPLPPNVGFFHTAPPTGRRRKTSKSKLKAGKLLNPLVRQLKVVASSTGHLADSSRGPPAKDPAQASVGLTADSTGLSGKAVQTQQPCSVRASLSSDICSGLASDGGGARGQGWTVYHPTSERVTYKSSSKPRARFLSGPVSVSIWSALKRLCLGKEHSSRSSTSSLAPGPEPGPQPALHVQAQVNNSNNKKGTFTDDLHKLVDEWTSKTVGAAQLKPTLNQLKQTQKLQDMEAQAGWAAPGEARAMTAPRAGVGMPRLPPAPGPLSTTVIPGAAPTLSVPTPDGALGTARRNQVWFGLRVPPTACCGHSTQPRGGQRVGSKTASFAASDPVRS
T9 sequence (O75676 33-301 limits assumed): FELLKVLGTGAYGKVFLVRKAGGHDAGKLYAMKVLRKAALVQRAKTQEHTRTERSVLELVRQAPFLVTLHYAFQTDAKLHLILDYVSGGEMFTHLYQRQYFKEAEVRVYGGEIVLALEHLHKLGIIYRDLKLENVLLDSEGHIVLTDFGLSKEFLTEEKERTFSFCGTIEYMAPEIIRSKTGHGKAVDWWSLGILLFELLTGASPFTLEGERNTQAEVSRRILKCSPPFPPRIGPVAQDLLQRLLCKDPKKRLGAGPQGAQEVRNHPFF
MEK5, sequence (Q13163 whole entry): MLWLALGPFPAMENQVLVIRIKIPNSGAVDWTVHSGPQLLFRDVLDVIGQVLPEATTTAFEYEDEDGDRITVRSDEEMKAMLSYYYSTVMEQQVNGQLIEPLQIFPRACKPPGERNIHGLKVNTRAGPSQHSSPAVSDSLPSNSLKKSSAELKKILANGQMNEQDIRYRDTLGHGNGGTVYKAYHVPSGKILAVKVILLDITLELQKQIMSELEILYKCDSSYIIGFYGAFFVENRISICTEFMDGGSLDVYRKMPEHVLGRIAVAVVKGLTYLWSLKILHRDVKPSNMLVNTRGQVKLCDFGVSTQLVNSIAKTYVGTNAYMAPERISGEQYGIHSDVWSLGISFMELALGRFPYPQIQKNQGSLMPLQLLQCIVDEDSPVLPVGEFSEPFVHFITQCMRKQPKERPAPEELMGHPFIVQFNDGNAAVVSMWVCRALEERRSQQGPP
NEK2, sequence (P51955 whole entry): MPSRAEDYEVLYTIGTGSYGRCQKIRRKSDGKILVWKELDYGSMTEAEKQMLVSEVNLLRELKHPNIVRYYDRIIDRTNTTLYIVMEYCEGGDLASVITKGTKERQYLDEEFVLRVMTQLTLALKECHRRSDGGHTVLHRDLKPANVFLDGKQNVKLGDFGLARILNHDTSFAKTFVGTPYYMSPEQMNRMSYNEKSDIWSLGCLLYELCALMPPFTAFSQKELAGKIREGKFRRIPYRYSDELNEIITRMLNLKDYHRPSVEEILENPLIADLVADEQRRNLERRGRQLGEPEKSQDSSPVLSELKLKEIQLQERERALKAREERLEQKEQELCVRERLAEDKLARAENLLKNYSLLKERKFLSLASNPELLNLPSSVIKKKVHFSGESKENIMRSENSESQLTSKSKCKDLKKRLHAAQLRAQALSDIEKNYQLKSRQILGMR
T5 sequence (P00533 25-1210 L861Q): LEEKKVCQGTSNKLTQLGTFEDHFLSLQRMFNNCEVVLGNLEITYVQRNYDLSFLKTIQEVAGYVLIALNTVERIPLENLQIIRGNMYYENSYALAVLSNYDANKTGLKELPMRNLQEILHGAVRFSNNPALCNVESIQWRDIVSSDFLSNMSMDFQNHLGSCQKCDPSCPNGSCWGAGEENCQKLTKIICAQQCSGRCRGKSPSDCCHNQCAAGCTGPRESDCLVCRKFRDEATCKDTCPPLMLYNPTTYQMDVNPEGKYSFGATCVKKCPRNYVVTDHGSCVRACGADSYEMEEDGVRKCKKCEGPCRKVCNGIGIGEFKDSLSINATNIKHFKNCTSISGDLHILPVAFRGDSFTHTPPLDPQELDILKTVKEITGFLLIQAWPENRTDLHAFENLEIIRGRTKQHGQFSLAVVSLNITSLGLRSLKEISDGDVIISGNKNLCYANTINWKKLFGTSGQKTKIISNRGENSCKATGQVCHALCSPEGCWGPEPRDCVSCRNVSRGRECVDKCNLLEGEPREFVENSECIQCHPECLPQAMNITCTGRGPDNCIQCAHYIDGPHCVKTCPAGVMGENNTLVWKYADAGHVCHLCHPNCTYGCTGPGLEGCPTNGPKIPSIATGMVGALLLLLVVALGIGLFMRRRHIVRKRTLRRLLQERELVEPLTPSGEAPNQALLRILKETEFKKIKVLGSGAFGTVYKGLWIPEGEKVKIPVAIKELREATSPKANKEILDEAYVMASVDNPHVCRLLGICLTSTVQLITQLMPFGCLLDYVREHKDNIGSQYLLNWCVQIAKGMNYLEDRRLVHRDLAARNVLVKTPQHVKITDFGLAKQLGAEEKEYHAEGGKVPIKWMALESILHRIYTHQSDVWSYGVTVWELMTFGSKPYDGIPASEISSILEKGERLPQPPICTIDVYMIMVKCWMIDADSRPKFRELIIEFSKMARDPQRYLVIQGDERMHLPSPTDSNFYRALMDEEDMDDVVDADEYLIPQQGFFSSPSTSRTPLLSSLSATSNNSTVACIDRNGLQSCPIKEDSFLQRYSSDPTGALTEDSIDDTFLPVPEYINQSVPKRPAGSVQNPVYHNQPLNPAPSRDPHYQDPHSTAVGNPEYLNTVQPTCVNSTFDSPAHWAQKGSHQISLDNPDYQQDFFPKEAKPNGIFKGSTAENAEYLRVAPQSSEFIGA
PRKX, sequence (P51817 whole entry): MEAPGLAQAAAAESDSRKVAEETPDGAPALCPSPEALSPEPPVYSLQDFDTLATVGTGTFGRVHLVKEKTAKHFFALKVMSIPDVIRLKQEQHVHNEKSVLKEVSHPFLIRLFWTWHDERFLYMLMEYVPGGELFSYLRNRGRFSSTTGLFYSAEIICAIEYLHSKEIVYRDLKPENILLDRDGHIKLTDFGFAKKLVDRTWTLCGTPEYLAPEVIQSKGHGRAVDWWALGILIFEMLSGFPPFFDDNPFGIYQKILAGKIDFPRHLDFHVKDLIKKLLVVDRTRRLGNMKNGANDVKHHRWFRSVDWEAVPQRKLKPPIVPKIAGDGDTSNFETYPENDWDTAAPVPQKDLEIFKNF

On to `C=CC(=O)Nc1ccc(OC)c(Nc2cc(-c3[nH]c(CC)nc3-c3cccc(NC(=O)c4cccc5c4NC(=O)c4ccccc4N5)c3)ccn2)c1` [Compound 4, N-(3-(5-(2-((5-Acrylamido-2-methoxyphenyl)amino)pyridin-4-yl)-2-ethyl-1H-imidazol-4-yl)phenyl)-11-oxo-10,11-dihydro-5H-dibenzo[b,e][1,4]diazepine-9-carboxamide], for which the remaining binding at 1 µM worked out at 100% on CDKL3; 80% in series [1]; 100% on SRPK1; 98% on NEK2; 89% on TNNI3K; 100% on MAST1. Besides, the remaining binding at 1 µM came out at 41% at MEK5; 99% on CAMK4; 100% at p38-delta; 2.7% on EGFR(L861Q); 62% at WNK2; 75% on PIP5K1A. In addition, the remaining binding at 1 µM on EGFR turned out to be 17%; in [2] it was 67%; on ERK5 it was 100%; on DAPK3 it was 62%; in [3], 96%; on PRKX, 100%. The remaining binding at 1 µM on INSRR amounted to 87%; on FLT1, 100%; in series [5], 100%; at AMPK-alpha2 it was 56%. Further, in series [4], the “Metabolic stability in liver microsomes” value was “metabolically stable”.
